Laboratory results: paper PMC7745062 (Acta Pharmaceutica Sinica. B, 2020)
“Also recorded” adds a separate entry of the source. Blank lines part the entries; values can stand above or below the compound they belong to.

Key:
[1] = target: PDE8A1 (480–820) (Homo sapiens, UniProt O60658); assay: In vitro enzymatic activity assay, PDE8A1
[2] = Metabolic stability in rat liver microsomes; format: in vitro ADME; settings: for half-life at 0.1 μmol/L: rat, pH 7.4
[3] = target: T1, human ether-à-go-go-related gene (hERG) potassium channel (Homo sapiens, UniProt Q12809); assay: cell-based; settings: hERG IC50, peak tail current inhibition, 2−3 cells per concentration
T1 sequence (Q12809 whole entry): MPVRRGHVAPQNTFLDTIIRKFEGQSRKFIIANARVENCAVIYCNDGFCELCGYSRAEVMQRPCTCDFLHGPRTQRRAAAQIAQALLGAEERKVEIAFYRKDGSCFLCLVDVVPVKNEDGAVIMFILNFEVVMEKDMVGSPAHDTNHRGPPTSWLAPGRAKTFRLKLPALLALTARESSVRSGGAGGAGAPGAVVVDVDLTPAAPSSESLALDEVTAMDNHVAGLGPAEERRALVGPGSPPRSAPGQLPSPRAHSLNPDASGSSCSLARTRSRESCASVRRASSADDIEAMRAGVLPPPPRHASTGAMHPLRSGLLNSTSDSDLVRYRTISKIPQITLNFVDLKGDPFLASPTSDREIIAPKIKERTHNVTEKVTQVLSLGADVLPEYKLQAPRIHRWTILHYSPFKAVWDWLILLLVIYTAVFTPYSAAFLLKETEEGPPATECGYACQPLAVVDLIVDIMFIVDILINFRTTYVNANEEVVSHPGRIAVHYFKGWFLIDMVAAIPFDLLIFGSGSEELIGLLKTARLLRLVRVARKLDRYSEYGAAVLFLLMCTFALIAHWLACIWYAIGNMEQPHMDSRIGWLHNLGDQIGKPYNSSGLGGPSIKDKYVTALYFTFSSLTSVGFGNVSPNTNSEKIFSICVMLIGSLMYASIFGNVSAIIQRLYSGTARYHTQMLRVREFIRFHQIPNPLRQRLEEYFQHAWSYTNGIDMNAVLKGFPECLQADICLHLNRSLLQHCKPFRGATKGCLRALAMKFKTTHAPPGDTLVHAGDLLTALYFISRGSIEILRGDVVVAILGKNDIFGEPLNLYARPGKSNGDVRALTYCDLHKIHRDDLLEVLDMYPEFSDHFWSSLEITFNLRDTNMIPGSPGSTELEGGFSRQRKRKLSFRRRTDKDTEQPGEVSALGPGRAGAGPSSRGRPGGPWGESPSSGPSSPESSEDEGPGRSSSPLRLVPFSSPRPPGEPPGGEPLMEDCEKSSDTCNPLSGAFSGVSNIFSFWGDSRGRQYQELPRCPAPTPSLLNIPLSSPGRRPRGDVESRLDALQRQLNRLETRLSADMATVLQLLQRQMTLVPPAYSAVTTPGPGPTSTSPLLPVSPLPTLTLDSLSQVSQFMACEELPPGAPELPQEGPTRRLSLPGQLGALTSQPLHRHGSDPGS

[4] = target: PDE7A1 (130–482) (Homo sapiens, UniProt Q13946); assay: In vitro enzymatic activity assay, PDE7A1
Chain of PDE7A1 (130–482) (Q13946 130-482): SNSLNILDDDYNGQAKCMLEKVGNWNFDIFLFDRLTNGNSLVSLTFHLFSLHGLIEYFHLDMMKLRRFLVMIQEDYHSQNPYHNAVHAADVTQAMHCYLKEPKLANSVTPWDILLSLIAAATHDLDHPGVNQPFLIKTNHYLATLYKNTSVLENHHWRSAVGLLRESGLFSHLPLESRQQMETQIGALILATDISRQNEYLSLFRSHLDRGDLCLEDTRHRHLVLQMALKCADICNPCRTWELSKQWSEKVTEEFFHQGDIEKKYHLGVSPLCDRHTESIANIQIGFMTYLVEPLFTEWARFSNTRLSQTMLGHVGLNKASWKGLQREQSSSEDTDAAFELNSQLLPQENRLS

[5] = Solubility in deionized water; format: physicochemical; settings: pH 7, water
[6] = target: PDE3A (679–1087) (Homo sapiens, UniProt Q14432); assay: In vitro enzymatic activity assay, PDE3A
Chain of PDE3A (679–1087) (Q14432 679-1087): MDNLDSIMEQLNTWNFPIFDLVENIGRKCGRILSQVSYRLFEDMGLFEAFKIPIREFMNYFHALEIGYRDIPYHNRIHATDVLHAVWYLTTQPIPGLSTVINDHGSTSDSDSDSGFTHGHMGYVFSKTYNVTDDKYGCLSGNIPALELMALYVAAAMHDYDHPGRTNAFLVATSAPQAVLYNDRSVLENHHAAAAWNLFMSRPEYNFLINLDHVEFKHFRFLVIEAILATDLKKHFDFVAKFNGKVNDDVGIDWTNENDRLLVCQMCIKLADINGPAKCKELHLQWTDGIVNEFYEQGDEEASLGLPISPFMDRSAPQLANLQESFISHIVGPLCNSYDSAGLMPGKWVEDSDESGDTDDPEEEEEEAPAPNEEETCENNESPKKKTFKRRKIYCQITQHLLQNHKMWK

[7] = Reactivity with cysteine in aqueous phase; format: physicochemical; settings: Cys ratio 1:1, 1H NMR in D2O against time
[8] = tested on: KM mice; assay: Acute toxicity after single oral dose in mice; format: in vivo
[9] = target: PDE4D2 (86–413) (Homo sapiens, UniProt Q08499); assay: In vitro enzymatic activity assay, PDE4D2
Chain of PDE4D2 (86–413) (Q08499 388-715): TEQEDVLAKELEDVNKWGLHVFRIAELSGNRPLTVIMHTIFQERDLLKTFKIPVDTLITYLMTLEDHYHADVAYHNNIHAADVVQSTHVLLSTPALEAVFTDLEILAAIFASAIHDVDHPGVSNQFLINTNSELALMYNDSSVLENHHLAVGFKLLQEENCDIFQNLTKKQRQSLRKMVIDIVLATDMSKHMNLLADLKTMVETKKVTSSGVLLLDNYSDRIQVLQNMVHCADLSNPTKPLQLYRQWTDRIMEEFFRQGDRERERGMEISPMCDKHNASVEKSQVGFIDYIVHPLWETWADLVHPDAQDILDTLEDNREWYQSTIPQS

[10] = target: PDE10A (449–770) (Homo sapiens, UniProt Q9Y233); assay: In vitro enzymatic activity assay
Chain of PDE10A (449–770) (Q9Y233 715-1036): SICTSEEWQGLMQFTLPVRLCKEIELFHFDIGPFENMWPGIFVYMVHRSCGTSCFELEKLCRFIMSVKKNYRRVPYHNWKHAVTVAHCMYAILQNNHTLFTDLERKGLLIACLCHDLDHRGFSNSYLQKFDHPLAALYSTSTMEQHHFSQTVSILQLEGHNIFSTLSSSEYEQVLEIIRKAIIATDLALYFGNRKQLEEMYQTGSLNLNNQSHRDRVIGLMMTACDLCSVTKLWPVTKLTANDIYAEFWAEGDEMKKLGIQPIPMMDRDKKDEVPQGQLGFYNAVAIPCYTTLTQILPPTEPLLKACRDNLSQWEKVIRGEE

[11] = In vivo pharmacokinetics of 14·3HCl in rats; design: species or system Sprague–Dawley rats
[12] = target: PDE9A2 (181–506) (Homo sapiens, UniProt O76083); assay: In vitro enzymatic activity assay, PDE9A2
Chain of PDE9A2 (181–506) (O76083 241-566): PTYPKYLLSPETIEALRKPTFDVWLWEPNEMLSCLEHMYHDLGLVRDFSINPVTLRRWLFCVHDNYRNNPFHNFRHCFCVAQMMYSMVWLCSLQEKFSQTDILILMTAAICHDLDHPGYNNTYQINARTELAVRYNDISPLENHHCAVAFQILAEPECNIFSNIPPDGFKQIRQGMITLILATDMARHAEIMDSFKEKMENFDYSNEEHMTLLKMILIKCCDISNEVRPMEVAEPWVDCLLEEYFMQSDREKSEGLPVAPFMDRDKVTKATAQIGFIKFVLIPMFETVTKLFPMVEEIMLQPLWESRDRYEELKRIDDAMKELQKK

[13] = tested on: monocrotaline (MCT)-induced PAH rat model; assay: Monocrotaline; format: in vivo; settings: for mean pulmonary artery pressure (mPAP) / right ventricle hypertrophy index (RVHI%) / wall thickness percentage (WT%): p.o. for 3 weeks, 14·3HCl 2.5 mg/kg, tadalafil 5.0 mg/kg, vs model group
[14] = target: PDE2A (580–919) (Homo sapiens, UniProt O00408); assay: In vitro enzymatic activity assay, PDE2A
Chain of PDE2A (580–919) (O00408 580-919): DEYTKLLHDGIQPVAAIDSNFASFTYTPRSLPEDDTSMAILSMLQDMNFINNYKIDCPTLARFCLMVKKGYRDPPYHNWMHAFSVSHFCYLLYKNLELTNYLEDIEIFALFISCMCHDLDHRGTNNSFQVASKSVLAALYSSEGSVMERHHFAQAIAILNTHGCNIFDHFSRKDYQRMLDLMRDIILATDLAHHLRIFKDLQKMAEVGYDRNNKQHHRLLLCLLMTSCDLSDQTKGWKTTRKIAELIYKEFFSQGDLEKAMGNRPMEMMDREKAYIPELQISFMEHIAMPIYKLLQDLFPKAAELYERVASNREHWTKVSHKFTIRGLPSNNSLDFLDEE

[15] = target: T1, human ether-à-go-go-related gene (hERG) potassium channel
[16] = target: PDE1B (10–487) (Homo sapiens, UniProt Q01064); assay: In vitro enzymatic activity assay, PDE1B
Chain of PDE1B (10–487) (Q01064 10-487): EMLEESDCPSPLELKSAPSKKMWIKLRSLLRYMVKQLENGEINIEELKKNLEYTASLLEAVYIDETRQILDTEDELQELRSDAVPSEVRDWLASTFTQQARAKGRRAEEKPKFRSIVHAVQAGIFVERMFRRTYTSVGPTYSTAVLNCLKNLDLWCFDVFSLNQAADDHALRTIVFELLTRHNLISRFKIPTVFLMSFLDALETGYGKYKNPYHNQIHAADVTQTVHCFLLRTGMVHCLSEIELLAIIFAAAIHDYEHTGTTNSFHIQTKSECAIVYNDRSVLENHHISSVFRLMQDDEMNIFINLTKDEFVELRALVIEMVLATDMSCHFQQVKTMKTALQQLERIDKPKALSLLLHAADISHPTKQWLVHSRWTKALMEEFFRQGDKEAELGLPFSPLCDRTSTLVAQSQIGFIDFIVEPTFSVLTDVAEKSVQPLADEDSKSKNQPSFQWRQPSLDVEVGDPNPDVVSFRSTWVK

[17] = target: PDE5A1 (535–860) (Homo sapiens, UniProt O76074); assay: In vitro enzymatic activity assay, PDE5A1
[18] = target: hERG potassium channel (versus PDE10A) (Homo sapiens, UniProt Q12809); assay: in vitro
[19] = Metabolic stability in rat liver microsomes; format: in vitro ADME; settings: RLM t1/2 (elimination half-life)
[20] = male, Sprague-Dawley, rat, plasma, iv, 2.5 mg/kg
[21] = male, Sprague-Dawley, rat, plasma, po, 10 mg/kg

Chain of PDE8A1 (480–820) (O60658 480-820): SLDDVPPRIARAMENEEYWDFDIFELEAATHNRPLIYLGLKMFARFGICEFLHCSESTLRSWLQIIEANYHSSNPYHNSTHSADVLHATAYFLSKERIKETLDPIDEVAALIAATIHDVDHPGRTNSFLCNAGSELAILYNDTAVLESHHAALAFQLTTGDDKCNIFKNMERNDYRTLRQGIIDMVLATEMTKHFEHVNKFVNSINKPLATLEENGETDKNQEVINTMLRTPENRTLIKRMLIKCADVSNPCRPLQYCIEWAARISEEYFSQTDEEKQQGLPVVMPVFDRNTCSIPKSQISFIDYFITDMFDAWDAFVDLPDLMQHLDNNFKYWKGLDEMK

SMILES: Cc1ccc2c(c1)nc(/C=C/c1cccc3cccnc13)n2-c1cccc(OCCCN2CCN(C)CC2)c1.Cl [Compound 14·3HCl, (E)-8-(2-(5-Methyl-1-(3-(3-(4-methylpiperazin-1-yl)propoxy)phenyl)-1H-benzo[d]imidazole-2-yl)vinyl)quinoline hydrochloride]
- IC50 [1]: > 10 µM
- Selectivity fold ([1]; IC50(PDE8A1)/IC50(PDE10A2)): >3500 fold
- CLint (intrinsic body clearance) [2]: 85.1 mL/(min·g·protein)
- half-life at 0.1 μmol/L [2]: 25 min
- IC50 [3]: 4.5 µM
- IC50 [4]: > 10 µM
- Selectivity fold ([4]; IC50(PDE7A1)/IC50(PDE10A2)): >3500 fold
- solubility [5]: 4700 µg/mL
- IC50 [6]: > 10 µM
- Selectivity fold ([6]; IC50(PDE3A)/IC50(PDE10A2)): >3500 fold
- reactivity of C=C bridge with cysteine [7]: insensitive to react with cysteine
- acute toxicity ([8]; oral administration): no obvious acute toxicity
- dose well tolerated ([8]; single oral dose): ≤ 1000 mg/kg
- IC50 [9]: > 10 µM
- Selectivity fold ([9]; IC50(PDE4D2)/IC50(PDE10A2)): >3500 fold
- selectivity over other PDE subtypes ([10]; against other PDE families): > 3500 fold
- AUC(0-inf) [11, 20]: 1820 ± 297 ng·h/mL
- AUC(0-t) [11, 20]: 1670 ± 184 ng·h/mL
- Cmax [11, 20]: 230 ± 50 ng/mL
- MRT last [11, 20]: 378 ± 48 min
- Tmax [11, 20]: 24 ± 24 min
- clearance [11, 20]: 23.3 mL/min/kg
- half-life [11, 20]: 402 ± 90 min
- AUC(0-inf) [11, 21]: 3550 ± 1010 ng·h/mL
- AUC(0-t) [11, 21]: 3310 ± 812 ng·h/mL
- Cmax [11, 21]: 272 ± 25 ng/mL
- MRT last [11, 21]: 504 ± 42 min
- Tmax [11, 21]: 360 ± 120 min
- half-life [11, 21]: 312 ± 54 min
- bioavailability, fold higher than A ([11]; rats, oral): ~20 fold
- IC50 [12]: > 10 µM
- Selectivity fold ([12]; IC50(PDE9A2)/IC50(PDE10A2)): >3500 fold
- improvement of PAH medical indicators ([13]; 14·3HCl 2.5 mg/kg p.o. compared with tadalafil 5.0 mg/kg p.o.): comparable to tadalafil; also recorded: significantly ameliorating these PAH medical indicators; also recorded: significantly improved typical disease medical indicators
- mean pulmonary artery pressure (mPAP) [13]: decreased
- right ventricle hypertrophy index (RVHI%) [13]: decreased
- wall thickness percentage (WT%) [13]: decreased
- IC50 [14]: > 10 µM
- Selectivity fold ([14]; IC50(PDE2A)/IC50(PDE10A2)): >3500 fold
- safety margin between hERG IC50 and plasma peak concentration (Cmax) [15]: 36 fold
- IC50 [16]: > 10 µM
- Selectivity fold ([16]; IC50(PDE1B)/IC50(PDE10A2)): >3500 fold
- IC50 [17]: > 10 µM
- Selectivity fold ([17]; IC50(PDE5A1)/IC50(PDE10A2)): >3500 fold
- selectivity ratio [18]: 1600

- half-life at 1.5 μmol/L [19]: 17.4 min
- enhancement of PDE10A inhibition relative to compound 2 ([10]; C=C bond instead of C–C single bond): 3 fold
SMILES: Cc1ccc2c(c1)nc(/C=C/c1cccc3cccnc13)n2-c1ccccc1 [Compound 4, (E)-8-(2-(5-Methyl-1-phenyl-1H-benzo[d]imidazol-2-yl)vinyl)quinoline]

- CLint (intrinsic body clearance) [2]: 127.7 mL/(min·g·protein)
- half-life at 0.1 μmol/L [2]: 16 min
SMILES: Cc1ccc2c(c1)nc(/C=C/c1cccc3cccnc13)n2-c1cccc(OCCCN2CCOCC2)c1.Cl [13·3HCl, (E)-4-(3-(3-(5-Methyl-2-(2-(quinolin-8-yl)vinyl)-1H-benzo[d]imidazole-1-yl)phenoxy)propyl)morpholine hydrochloride]

- CLint (intrinsic body clearance) [2]: 1390 mL/(min·g·protein)
- half-life at 0.1 μmol/L [2]: 1.5 min
SMILES: Cc1ccc2c(c1)nc(/C=C/c1cccc3cccnc13)n2-c1cccc(S(=O)(=O)N2CCN(C)CC2)c1 [Compound 11, (E)-8-(2-(5-Methyl-1-(3-((4-methylpiperazin-1-yl)sulfonyl)phenyl)-1H-benzo[d]imidazole-2-yl)vinyl) quinoline]

SMILES: CN1CC(=O)N2[C@H](c3ccc4c(c3)OCO4)c3[nH]c4ccccc4c3C[C@@H]2C1=O [tadalafil, reference compound]
- mean pulmonary artery pressure (mPAP) [13]: decreased
- right ventricle hypertrophy index (RVHI%) [13]: decreased
- wall thickness percentage (WT%) [13]: decreased

- CLint (intrinsic body clearance) [2]: 999.4 mL/(min·g·protein)
- half-life at 0.1 μmol/L [2]: 2.1 min
SMILES: COc1cccc(-n2c(/C=C/c3cccc4cccnc34)nc3cc(C)ccc32)c1 [Compound 10, (E)-8-(2-(1-(3-Methoxyphenyl)-5-methyl-1H-benzo[d]imidazole-2-yl)vinyl)quinoline]

- CLint (intrinsic body clearance) [2]: 198.1 mL/(min·g·protein)
- half-life at 0.1 μmol/L [2]: 11 min
SMILES: Cc1ccc2c(c1)nc(/C=C/c1cccc3cccnc13)n2-c1cccc(CN2CCN(C)CC2)c1 [Compound 12, (E)-8-(2-(5-Methyl-1-(3-((4-methylpiperazin-1-yl)methyl)phenyl)-1H-benzo[d]imidazole-2-yl)vinyl) quinoline]
